Measured values published in US20100285959A1, “HERBICIDAL MIXTURES” (priority 2006, published 2010).
Blank lines part the entries; values can stand above or below the compound they belong to.

How the values were obtained:
winter barley (HORVW) [1] = assay: Test 20 growth chamber, postemergence; format: in vivo, Hordeum vulgare; settings: 25 DAA
Description: A test was conducted to evaluate the effects on winter barley (HORVW, Hordeum vulgare L.) and winter wheat (TRZAW, Triticum aestivum L.) of mixtures of Compound 2 with the commercial herbicides (2,4-dichlorophenoxy)acetic acid (2,4-D) and (4-chloro-2-methylphenoxy)acetic acid (MCPA), auxin mimics. […] Plants were treated postemergence at the 2-leaf growth stage, and each treatment was replicated a total of four times (three times in the loam/sand blend and one time in RediEarth). […] Plants were watered as needed. […] Results are the means of the four replicates.

winter barley (HORVW) [2] = assay: Test 22 growth chamber, postemergence; format: in vivo, Hordeum vulgare; settings: 25 DAA
Description: (§1) A test was conducted to evaluate the effects on winter barley (HORVW, Hordeum vulgare L.), winter wheat (TRZAW, Triticum aestivum L.), and several weed species of mixtures of Compound 2 with the commercial herbicides (2,4-dichlorophenoxy)acetic acid (2,4-D) and (4-chloro-2-methylphenoxy)acetic acid (MCPA), auxin mimics. […] Plants were treated postemergence at the 2-4 leaf growth stage, except KCHSC, SASKR and STEME which were in the 4-8 leaf growth stage. Each treatment was replicated one time. […] Plants were watered as needed. […] Results are from single replicates.

redroot pigweed (AMARE) = assay: Test 22 growth chamber, postemergence; format: in vivo, Amaranthus retroflexus; settings: 25 DAA
Description: as §1

common chickweed (STEME) = assay: Test 23 growth chamber, postemergence; format: in vivo, Stellaria media; settings: 21 DAA
Description: as §1, with “stage,” for “stage, except KCHSC, SASKR”, “each” for “STEME which were in the 4-8 leaf growth stage. Each”, “three times.” for “one time.”, “means of the three” for “from single”

giant ragweed (AMBTR) = assay: Test 2 field trial, preemergence; format: in vivo, Ambrosia trifida; parameters: scale not given here
Excerpt: (§2) Corn seeds (hybrid ‘Pioneer 31G96’) were planted in mid spring season, 3.8 cm deep in a clay loam soil having 2% organic matter and a pH of 6.6. Plots were 6.1 m long by 3.0 m wide with rows spaced 76 cm apart. Seeds were spaced 15 cm apart within the rows. The field was managed using conventional tillage practices. […] A few of the weed species could not be evaluated at every timing. […] Results are the means of the three replicates.

yellow nutsedge (CYPES) = assay: Test 2 field trial, preemergence; format: in vivo, Cyperus esculentus; parameters: scale not given here
Excerpt: as §2

barley (HORVX) = assay: Test 30 growth chamber, postemergence; format: in vivo, Hordeum vulgare
Description: A growth chamber test was conducted to evaluate the effects on the plant species wheat (TRZAW, Triticum aestivum L.) and barley (HORVX, Hordeum vulgare L.) with mixtures of Compound 1 and Compound 2 with glycerol. Wheat and barley seeds were planted in a sandy loam soil having 0.9% organic matter and a pH of 6.3. […] Wheat and barley plants were treated postemergence at the two leaf growth stage for Compound 1 and at the three leaf growth stage for Compound 2. Each treatment was replicated one time. […] Plants were watered as needed. […] Colby's Equation was used to determine herbicidal effects expected from the mixtures.

common ragweed (AMBEL) = assay: Test 14 field trial, preemergence, growth as percent of control; format: in vivo, Ambrosia artemisiifolia
Excerpt: Corn seeds (hybrid ‘Pioneer 31G96 RR’) were planted in mid spring season, 3.8 cm deep in a clay loam soil having 2% organic matter and a pH of 6.6. Plots were 6.1 m long by 3.0 m wide with rows spaced 76 cm apart. Seeds were spaced 15 cm apart within the rows. The field was managed using conventional tillage practices. […] Yellow nutsedge was only evaluated 19 and 28 days after application, and ivyleaf morningglory could only be evaluated 28 days after application. […] Results are the means of the three replicates. This growth inhibition data was converted to results in the form of “plant growth as a percent of control plant growth” using the calculation “100 minus growth inhibition”. […] For “growth as a percent of control” data, Colby's Equation calculates the expected additive effect of herbicidal mixtures having two active ingredients as follows:
Ga+b=GaGb/100 • wherein Ga+b is the growth as a percent of control of plants treated with the mixture expected from additive contribution of the individual components, • Ga is the observed growth as a percent of control of plants treated with the first active ingredient at the same use rate as in the mixture, and • Gb is the observed growth as a percent of control of plants treated with the second active ingredient at the same use rate as in the mixture. For mixtures having three active ingredients, Colby's Equation to calculate the expected additive effect of herbicidal mixtures is as follows:
Ga+b+c=GaGbGc/10,000 • wherein Ga and Gb are as defined above and • Ga+b+c is the growth as a percent of control of plants treated with the mixture expected from additive contribution of the individual components, and • Gc is the observed growth as a percent of control of plants treated with the third active ingredient at the same use rate as in the mixture. When these two forms of Colby's Equation are used, if the observed effects on weeds are less than the expected values, the mixture is synergistic.

[3] = 2,4-D or MCPA alone 250 g a.i./ha
[4] = 18 DAA, g a.i./ha: Cpd 2 25, Atrazine 250
[5] = 18 DAA, g a.i./ha: Cpd 2 50, Atrazine 500
[6] = 18 DAA, g a.i./ha: Cpd 2 75, Atrazine 750
[7] = 18 DAA, g a.i./ha: Cpd 2 100, Atrazine 1000
[8] = 28 DAA, g a.i./ha: Cpd 2 25, Atrazine 250
[9] = 28 DAA, g a.i./ha: Cpd 2 50, Atrazine 500
[10] = 28 DAA, g a.i./ha: Cpd 2 75, Atrazine 750
[11] = 18 DAA, g a.i./ha: Cpd 2 150, Atrazine 1500
[12] = 28 DAA, g a.i./ha: Cpd 2 100, Atrazine 1000
[13] = 28 DAA, g a.i./ha: Cpd 2 150, Atrazine 1500
[14] = 55 DAA, g a.i./ha: Cpd 2 25, Atrazine 250
[15] = 55 DAA, g a.i./ha: Cpd 2 50, Atrazine 500
[16] = 55 DAA, g a.i./ha: Cpd 2 75, Atrazine 750
[17] = 55 DAA, g a.i./ha: Cpd 2 100, Atrazine 1000
[18] = 55 DAA, g a.i./ha: Cpd 2 150, Atrazine 1500

SMILES: O=C(O)COc1ccc(Cl)cc1Cl [2,4-D, (2,4-dichlorophenoxy)acetic acid]
Postemergence HORVW Obs (winter barley (HORVW) [1]; [3]): 26
Postemergence HORVW Obs (winter barley (HORVW) [2]; [3]): 10
Postemergence AMARE Obs (redroot pigweed (AMARE); [3]): 70
Postemergence STEME Obs (common chickweed (STEME); [3]): 65

SMILES: CCNc1nc(Cl)nc(NC(C)C)n1 [Atrazine, atrazine, reference compound]
AMBTR Obs (giant ragweed (AMBTR); [4]): 0
AMBTR Obs (giant ragweed (AMBTR); [5]): 30
AMBTR Obs (giant ragweed (AMBTR); [6]): 75
AMBTR Obs (giant ragweed (AMBTR); [7]): 20
AMBTR Obs (giant ragweed (AMBTR); [8]): 10
AMBTR Obs (giant ragweed (AMBTR); [9]): 5
AMBTR Obs (giant ragweed (AMBTR); [10]): 65
CYPES Obs (yellow nutsedge (CYPES); [4]): 13
CYPES Obs (yellow nutsedge (CYPES); [5]): 18
CYPES Obs (yellow nutsedge (CYPES); [6]): 40
CYPES Obs (yellow nutsedge (CYPES); [7]): 28
CYPES Obs (yellow nutsedge (CYPES); [11]): 27
CYPES Obs (yellow nutsedge (CYPES); [8]): 0
CYPES Obs (yellow nutsedge (CYPES); [9]): 5
CYPES Obs (yellow nutsedge (CYPES); [10]): 0
CYPES Obs (yellow nutsedge (CYPES); [12]): 2
CYPES Obs (yellow nutsedge (CYPES); [13]): 0
CYPES Obs (yellow nutsedge (CYPES); [14]): 10
CYPES Obs (yellow nutsedge (CYPES); [15]): 13
CYPES Obs (yellow nutsedge (CYPES); [16]): 0
CYPES Obs (yellow nutsedge (CYPES); [17]): 62
CYPES Obs (yellow nutsedge (CYPES); [18]): 60

HORVX Obs (barley (HORVX); 18 DAA, Cpd 1 1 g a.i./ha): 0%
HORVX Obs (barley (HORVX); 18 DAA, Cpd 1 4 g a.i./ha): 20%
HORVX Obs (barley (HORVX); 18 DAA, Cpd 1 16 g a.i./ha): 40%
SMILES: Nc1nc(C2CC2)nc(C(=O)O)c1Cl [Compound 1, 6-amino-5-chloro-2-cyclopropyl-4-pyrimidinecarboxylic acid]

SMILES: COC(=O)c1nc(C2CC2)nc(N)c1Cl [Compound 2, methyl 6-amino-5-chloro-2-cyclopropyl-4-pyrimidinecarboxylate]
AMBTR Obs (giant ragweed (AMBTR); [4]): 10
AMBTR Obs (giant ragweed (AMBTR); [5]): 30
AMBTR Obs (giant ragweed (AMBTR); [6]): 10
AMBTR Obs (giant ragweed (AMBTR); [7]): 45
AMBTR Obs (giant ragweed (AMBTR); [11]): 65
AMBTR Obs (giant ragweed (AMBTR); [8]): 35
AMBTR Obs (giant ragweed (AMBTR); [9]): 30
AMBTR Obs (giant ragweed (AMBTR); [10]): 75
AMBTR Obs (giant ragweed (AMBTR); [12]): 70
CYPES Obs (yellow nutsedge (CYPES); [4]): 12
CYPES Obs (yellow nutsedge (CYPES); [5]): 18
CYPES Obs (yellow nutsedge (CYPES); [6]): 22
CYPES Obs (yellow nutsedge (CYPES); [7]): 25
CYPES Obs (yellow nutsedge (CYPES); [11]): 30
CYPES Obs (yellow nutsedge (CYPES); [8]): 0
CYPES Obs (yellow nutsedge (CYPES); [9]): 0
CYPES Obs (yellow nutsedge (CYPES); [10]): 0
CYPES Obs (yellow nutsedge (CYPES); [12]): 0
CYPES Obs (yellow nutsedge (CYPES); [13]): 0
CYPES Obs (yellow nutsedge (CYPES); [14]): 0
CYPES Obs (yellow nutsedge (CYPES); [15]): 0
CYPES Obs (yellow nutsedge (CYPES); [16]): 0
CYPES Obs (yellow nutsedge (CYPES); [17]): 0
CYPES Obs (yellow nutsedge (CYPES); [18]): 10
Obs growth % of control (common ragweed (AMBEL); 19 DAA, 75 g a.i./ha): 75%
Obs growth % of control (common ragweed (AMBEL); 19 DAA, 100 g a.i./ha): 55%
Obs growth % of control (common ragweed (AMBEL); 28 DAA, 75 g a.i./ha): 20%
Obs growth % of control (common ragweed (AMBEL); 28 DAA, 100 g a.i./ha): 15%
Obs growth % of control (common ragweed (AMBEL); 56 DAA, 75 g a.i./ha): 17%
Obs growth % of control (common ragweed (AMBEL); 56 DAA, 100 g a.i./ha): 12%
Postemergence HORVW Obs (winter barley (HORVW) [1]; Cpd 2 alone 4 g a.i./ha): 26
Postemergence HORVW Obs (winter barley (HORVW) [1]; Cpd 2 alone 8 g a.i./ha): 33
Postemergence HORVW Obs (winter barley (HORVW) [1]; Cpd 2 alone 16 g a.i./ha): 44
Postemergence HORVW Obs (winter barley (HORVW) [2]; Cpd 2 alone 4 g a.i./ha): 30
Postemergence HORVW Obs (winter barley (HORVW) [2]; Cpd 2 alone 8 g a.i./ha): 35
Postemergence HORVW Obs (winter barley (HORVW) [2]; Cpd 2 alone 16 g a.i./ha): 40
Postemergence AMARE Obs (redroot pigweed (AMARE); Cpd 2 alone 4 g a.i./ha): 55
Postemergence AMARE Obs (redroot pigweed (AMARE); Cpd 2 alone 8 g a.i./ha): 65
Postemergence AMARE Obs (redroot pigweed (AMARE); Cpd 2 alone 16 g a.i./ha): 65
Postemergence STEME Obs (common chickweed (STEME); Cpd 2 alone 4 g a.i./ha): 55
Postemergence STEME Obs (common chickweed (STEME); Cpd 2 alone 8 g a.i./ha): 58
Postemergence STEME Obs (common chickweed (STEME); Cpd 2 alone 16 g a.i./ha): 67
HORVX Obs (barley (HORVX); 17 DAA, Cpd 2 1 g a.i./ha): 25%
HORVX Obs (barley (HORVX); 17 DAA, Cpd 2 4 g a.i./ha): 30%
HORVX Obs (barley (HORVX); 17 DAA, Cpd 2 16 g a.i./ha): 35%

SMILES: CCc1cccc(C)c1N(C(=O)CCl)[C@@H](C)COC [S-Metolachlor, S-metolachlor, reference compound]
Obs growth % of control (common ragweed (AMBEL); 19 DAA, 1870 g a.i./ha): 100%
Obs growth % of control (common ragweed (AMBEL); 28 DAA, 1870 g a.i./ha): 75%
Obs growth % of control (common ragweed (AMBEL); 56 DAA, 1870 g a.i./ha): 93%
